Laboratory results reported in patent US5132111A (priority 1990, dated 1992).
Non-standard residues stand in square brackets, D forms with d. Residues, ends and D or L forms follow the SMILES beside them. Nle = CCCC[C@H](N)C(=O)O

What follows are compounds tested on secretion of ACTH and β-END-LI.

Compound | secretion of ACTH (inhibition) | secretion of β-END-LI (inhibition)
CCCC[C@H](NC(=O)[C@H](CCC(=O)O)NC(=O)[C@H](CC(C)C)NC(=O)[C@H](CCCC)NC(=O)[C@H](CCC(=O)O)NC(=O)[C@H](CCCNC(=N)N)NC(=O)[C@H](CC(C)C)NC(=O)[C@H](CC(C)C)NC(=O)[C@H](Cc1c[nH]cn1)NC(=O)[C@H](Cc1ccccc1)NC(=O)[C@@H](NC(=O)[C@H](CC(C)C)NC(=O)[C@@H](N)CC(=O)O)[C@@H](C)O)C(=O)N[C@@H](C)C(=O)N[C@@H](CCCNC(=N)N)C(=O)N[C@@H](C)C(=O)N[C@@H](CCC(=O)O)C(=O)N[C@@H](CCC(N)=O)C(=O)N[C@@H](CCC(=O)O)C(=O)N[C@@H](C)C(=O)N[C@@H](CCC(=O)O)C(=O)N[C@@H](CCC(N)=O)C(=O)N[C@@H](C)C(=O)N[C@@H](C)C(=O)N[C@@H](CC(C)C)C(=O)N[C@@H](CC(N)=O)C(=O)N[C@@H](CCCNC(=N)N)C(=O)N[C@@H](CC(C)C)C(=O)N[C@@H](CC(C)C)C(=O)N[C@@H](CC(C)C)C(=O)N[C@@H](CCC(=O)O)C(=O)N[C@@H](CCC(=O)O)C(=O)N[C@@H](C)C(N)=O [[Nle^18,21]-AAHC(9-41)] (H-DLTFHLLRE[Nle]LE[Nle]ARAEQEAEQAALNRLLLEEA-NH2) | inhibits | inhibits
CCCC[C@H](NC(=O)[C@H](CCC(=O)O)NC(=O)[C@H](CC(C)C)NC(=O)[C@H](CCCC)NC(=O)[C@H](CCC(=O)O)NC(=O)[C@H](CCCNC(=N)N)NC(=O)[C@H](CC(C)C)NC(=O)[C@H](CC(C)C)NC(=O)[C@H](Cc1c[nH]cn1)NC(=O)[C@H](Cc1ccccc1)NC(=O)[C@@H](NC(=O)[C@@H](N)CC(C)C)[C@@H](C)O)C(=O)N[C@@H](C)C(=O)N[C@@H](CCCNC(=N)N)C(=O)N[C@@H](C)C(=O)N[C@@H](CCC(=O)O)C(=O)N[C@@H](CCC(N)=O)C(=O)N[C@@H](CCC(=O)O)C(=O)N[C@@H](C)C(=O)N[C@@H](CCC(=O)O)C(=O)N[C@@H](CCC(N)=O)C(=O)N[C@@H](C)C(=O)N[C@@H](C)C(=O)N[C@@H](CC(C)C)C(=O)N[C@@H](CC(N)=O)C(=O)N[C@@H](CCCNC(=N)N)C(=O)N[C@@H](CC(C)C)C(=O)N[C@@H](CC(C)C)C(=O)N[C@@H](CC(C)C)C(=O)N[C@@H](CCC(=O)O)C(=O)N[C@@H](CCC(=O)O)C(=O)N[C@@H](C)C(N)=O [[Nle^18,21]-AAHC(10-41)] (H-LTFHLLRE[Nle]LE[Nle]ARAEQEAEQAALNRLLLEEA-NH2) | inhibits | inhibits
H-Asp-CML-Thr-Leu-Glu -CML-CML-Arg-Glu-Met-CML-Glu-Met-CMA-Arg-Ala-Glu-Gln-CML -Ala-Glu-Gln-Ala-CMA-CML-Asn-Arg-Leu-CML-Leu-Glu-Glu-CMA-NH2 | inhibits | inhibits
H-DLTFELLREVLEVARAEQLAQQAHSNRRLMEII-NH2 [[Glu^13, Val^21, Arg^36]-rCRF (9-41)] | inhibits | inhibits
H-DLTFHLLREMLEMARAEQEAEQAALNRLLLEEA-NH2 [AAHC(9-41)] | inhibits | 
H-DLTFHLLREVAEMTRAEQLAQQAHSNRRLMEII-NH2 [[Ala^19, Thr^22, Arg^36]-hCRF (9-41)] | inhibits | inhibits
H-DLTFHLLREVLEMARAEQLAQQAHSNRRLMEII-NH2 [[Arg^36]-rCRF (9-41)] | inhibits | 
H-IDLTFHLLRNMIEMARNENQREQAGLNRRYLDEV-NH2 [[Arg^36]-Carp Urotensin I(8-41)] | inhibits | inhibits
H-LDLTFHLLREVLEMARAEQLAQQAHSNRRLMEII-NH2 [[Arg^36]-rCRF(8-41)] | inhibits | inhibits
H-LTFHLLREVLEMARAEQLAQQAHSNRRLMEII-NH2 [[Arg^36]-rCRF(10-41)] | inhibits | inhibits

These compounds were tested on CRF Target Cells (anterior pituitary cells).
Assay type: cell-based, rat

Compound | ACTH secretion in response to CRF 3 days following pretreatment | ACTH-secretory response to subsequent CRF after pretreatment | decrease of ACTH content
H-Ser-Gln-Glu-Pro-Pro-Ile-Ser-Leu-Asp-Leu-Thr-Phe-His -Leu-Leu-Arg-Glu-Val-Leu-Glu-Met-Thr-Lys-Ala-Asp-Gln -Leu-Ala-Gln-Gln-Ala-His-Ser-Asn-Arg-Lys-Leu-Leu-Asp-Ile-Ala-NH2 [CRF] | 3.7 times the basal rate | does not eliminate the ability of the cells to respond | 40%

Each compound was assayed on gonadotropes (anterior pituitary cells).
Assay type: cell-based, rat

Compound | LH-secretory response to GnRH after pretreatment | effect on LH content
H-Ser-Gln-Glu-Pro-Pro-Ile-Ser-Leu-Asp-Leu-Thr-Phe-His -Leu-Leu-Arg-Glu-Val-Leu-Glu-Met-Thr-Lys-Ala-Asp-Gln -Leu-Ala-Gln-Gln-Ala-His-Ser-Asn-Arg-Lys-Leu-Leu-Asp-Ile-Ala-NH2 [CRF] | no effect | neither CRF nor the cytotoxic conjugate has any significant effect on LH content
